Like-named read-outs stand apart in the source and are kept apart here.
Tests used:
human recombinant GR = target: T1, human recombinant GR (Homo sapiens, UniProt P04150); experiment: Human glucocorticoid receptor (GR) fluorescence polarisation (FP) binding assay
T1 construct: purchased PanVera P2812
T1 sequence (P04150 1-777): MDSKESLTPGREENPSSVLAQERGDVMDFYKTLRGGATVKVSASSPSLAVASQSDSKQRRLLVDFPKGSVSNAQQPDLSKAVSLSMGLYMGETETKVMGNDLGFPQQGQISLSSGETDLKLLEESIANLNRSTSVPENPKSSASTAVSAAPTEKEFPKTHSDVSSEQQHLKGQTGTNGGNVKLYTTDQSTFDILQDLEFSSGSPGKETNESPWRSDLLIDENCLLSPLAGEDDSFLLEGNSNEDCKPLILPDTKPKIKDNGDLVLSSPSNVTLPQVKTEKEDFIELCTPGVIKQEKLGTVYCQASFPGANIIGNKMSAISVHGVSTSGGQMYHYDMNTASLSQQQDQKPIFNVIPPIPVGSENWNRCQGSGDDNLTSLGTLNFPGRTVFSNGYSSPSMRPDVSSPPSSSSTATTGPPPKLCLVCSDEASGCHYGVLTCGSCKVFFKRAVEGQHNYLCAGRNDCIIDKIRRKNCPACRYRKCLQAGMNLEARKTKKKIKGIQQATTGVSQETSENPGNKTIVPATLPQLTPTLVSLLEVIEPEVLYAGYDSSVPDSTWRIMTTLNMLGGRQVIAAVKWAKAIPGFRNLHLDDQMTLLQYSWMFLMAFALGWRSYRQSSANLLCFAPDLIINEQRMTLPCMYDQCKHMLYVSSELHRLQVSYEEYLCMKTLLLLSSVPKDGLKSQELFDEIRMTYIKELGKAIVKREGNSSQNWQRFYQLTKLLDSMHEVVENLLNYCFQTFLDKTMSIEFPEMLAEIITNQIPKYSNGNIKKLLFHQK
Procedure, shortened: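 Competition fluorescence polarisation: 0.5 nM GS Red labelled glucocorticoid and 1 nM recombinant human GR with 8-point half-log compound series, 1% DMSO, 4 h room temperature, potassium phosphate pH 7.4 buffer with molybdate, EDTA, DTT. Affinity derived from the drop in polarisation, normalised to blank wells.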

[1] = test system: induction of TAT by dexamethasone in HepG2 cells; experiment: HepG2 tyrosine aminotransferase (TAT) assay; format: cell-based, human
[2] = human recombinant GR, fluorescence polarisation binding assay, read-out: GR binding
[3] = HepG2 cells, challenge of 100 nM dexamethasone, Ki from IC50 by Cheng and Prusoff equation

## O=C(c1ccccn1)[C@]12Cc3cnn(-c4ccc(F)c(F)c4)c3C=C1CCN(S(=O)(=O)c1ccc(Cl)c(Cl)c1)C2 [Example 15C, (R)-(6-((3,4-dichlorophenyl)sulfonyl)-1-(3,4-difluorophenyl)-4,4a,5,6,7,8-hexahydro-1H-pyrazolo[3,4-g]isoquinolin-4a-yl)(pyridin-2-yl)methanone]
Human recombinant GR; [2]
  Ki: < 0.5 nM
[1]; [3]
  Ki: 20 to 100 nM

## Cc1ccnc(C(=O)[C@]23Cc4cnn(-c5ccc(F)cc5)c4C=C2CCN(S(=O)(=O)c2ccnn2C)C3)c1 [Example 11AJ, (R)-(1-(4-fluorophenyl)-6-((1-methyl-1H-pyrazol-5-yl)sulfonyl)-4,4a,5,6,7,8-hexahydro-1H-pyrazolo[3,4-g]isoquinolin-4a-yl)(4-methylpyridin-2-yl)methanone]
Human recombinant GR; [2]
  Ki: < 0.5 nM
[1]; [3]
  Ki: < 20 nM

## Cn1nncc1S(=O)(=O)N1CCC2=Cc3c(cnn3-c3ccc(F)cc3)C[C@]2(C(=O)c2cc(C(F)(F)F)ccn2)C1 [Example 11CF, (R)-(1-(4-fluorophenyl)-6-((1-methyl-1H-1,2,3-triazol-5-yl)sulfonyl)-4,4a,5,6,7,8-hexahydro-1H-pyrazolo[3,4-g]isoquinolin-4a-yl)(4-(trifluoromethyl)pyridin-2-yl)methanone]
Human recombinant GR; [2]
  Ki: > 1 nM
[1]; [3]
  Ki: 20 to 100 nM

## Cn1cc(C(=O)[C@]23Cc4cnn(-c5ccc(F)cc5)c4C=C2CCN(S(=O)(=O)c2ccc(Cl)c(Cl)c2)C3)cn1 [Example 11CC, (R)-(6-((3,4-dichlorophenyl)sulfonyl)-1-(4-fluorophenyl)-4,4a,5,6,7,8-hexahydro-1H-pyrazolo[3,4-g]isoquinolin-4a-yl)(1-methyl-1H-pyrazol-4-yl)methanone]
Human recombinant GR; [2]
  Ki: > 1 nM
[1]; [3]
  Ki: 20 to 100 nM

## O=C(c1nccs1)[C@]12Cc3cnn(-c4ccc(F)cc4)c3C=C1CCN(S(=O)(=O)c1cccc(Cl)c1)C2 [Example 12E, (R)-(6-((3-chlorophenyl)sulfonyl)-1-(4-fluorophenyl)-4,4a,5,6,7,8-hexahydro-1H-pyrazolo[3,4-g]isoquinolin-4a-yl)(thiazol-2-yl)methanone]
Human recombinant GR; [2]
  Ki: < 0.5 nM
[1]; [3]
  Ki: 20 to 100 nM

## Cc1ccnc(C(=O)[C@]23Cc4cnn(-c5ccc(F)cc5)c4C=C2CCN(S(=O)(=O)c2cc(C(F)(F)F)ccn2)C3)c1 [Example 11BC, (R)-(1-(4-fluorophenyl)-6-((4-(trifluoromethyl)pyridin-2-yl)sulfonyl)-4,4a,5,6,7,8-hexahydro-1H-pyrazolo[3,4-g]isoquinolin-4a-yl)(4-methylpyridin-2-yl)methanone]
Human recombinant GR; [2]
  Ki: < 0.5 nM
[1]; [3]
  Ki: < 20 nM

## O=C(c1ccccn1)[C@]12Cc3cnn(-c4ccc(F)cc4)c3C=C1CCN(S(=O)(=O)c1ccc(N3CCCC3)cc1)C2 [Example 10, (R)-(1-(4-fluorophenyl)-6-((4-(pyrrolidin-1-yl)phenyl)sulfonyl)-4,4a,5,6,7,8-hexahydro-1H-pyrazolo[3,4-g]isoquinolin-4a-yl)(pyridin-2-yl)methanone]
Human recombinant GR; [2]
  Ki: < 0.5 nM
[1]; [3]
  Ki: ≥ 100 nM

## CC(C)n1nncc1S(=O)(=O)N1CCC2=Cc3c(cnn3-c3ccc(F)cc3)C[C@]2(C(=O)c2ccccn2)C1 [Example 11CU, (R)-(1-(4-fluorophenyl)-6-((1-isopropyl-1H-1,2,3-triazol-5-yl)sulfonyl)-4,4a,5,6,7,8-hexahydro-1H-pyrazolo[3,4-g]isoquinolin-4a-yl)(pyridin-2-yl)methanone]
Human recombinant GR; [2]
  Ki: 0.5 to 1 nM
[1]; [3]
  Ki: 20 to 100 nM

## O=C(c1nccs1)[C@]12Cc3cnn(-c4ccc(F)cc4)c3C=C1CCN(S(=O)(=O)c1ccc(Cl)c(Cl)c1)C2 [Example 12N, (R)-(6-((3,4-dichlorophenyl)sulfonyl)-1-(4-fluorophenyl)-4,4a,5,6,7,8-hexahydro-1H-pyrazolo[3,4-g]isoquinolin-4a-yl)(thiazol-2-yl)methanone]
Human recombinant GR; [2]
  Ki: 0.5 to 1 nM
[1]; [3]
  Ki: < 20 nM

## CCCn1cc(S(=O)(=O)N2CCC3=Cc4c(cnn4-c4ccc(F)cc4)C[C@]3(C(=O)c3ccccn3)C2)cn1 [Example 11CA, (R)-(1-(4-fluorophenyl)-6-((1-propyl-1H-pyrazol-4-yl)sulfonyl)-4,4a,5,6,7,8-hexahydro-1H-pyrazolo[3,4-g]isoquinolin-4a-yl)(pyridin-2-yl) methanone]
Human recombinant GR; [2]
  Ki: < 0.5 nM
[1]; [3]
  Ki: < 20 nM

## Cn1cc(S(=O)(=O)N2CCC3=Cc4c(cnn4-c4ccc(F)cc4)C[C@]3(C(=O)c3ccccn3)C2)cn1 [Example 2M, (R)-(1-(4-fluorophenyl)-6-((1-methyl-1H-pyrazol-4-yl)sulfonyl)-4,4a,5,6,7,8-hexahydro-1H-pyrazolo[3,4-g]isoquinolin-4a-yl)(pyridin-2-yl)methanone]
Human recombinant GR; [2]
  Ki: < 0.5 nM
[1]; [3]
  Ki: 20 to 100 nM

## Cc1ccnc(C(=O)[C@]23Cc4cnn(-c5ccc(F)cc5)c4C=C2CCN(S(=O)(=O)c2ccc4c(c2)CC(=O)N4C)C3)c1 [Example 11AO, (R)-5-((1-(4-fluorophenyl)-4a-(4-methylpicolinoyl)-4a,5,7,8-tetrahydro-1H-pyrazolo[3,4-g]isoquinolin-6 (4H)-yl)sulfonyl)-1-methylindolin-2-one]
Human recombinant GR; [2]
  Ki: < 0.5 nM
[1]; [3]
  Ki: < 20 nM

## O=C(c1ccccn1)[C@]12Cc3cnn(-c4ccc(F)cc4)c3C=C1CCN(S(=O)(=O)c1ccc(F)c(C(F)(F)F)c1)C2 [Example 2P, (R)-(6-((4-fluoro-3-(trifluoromethyl)phenyl)sulfonyl)-1-(4-fluorophenyl)-4,4a,5,6,7,8-hexahydro-1H-pyrazolo[3,4-g]isoquinolin-4a-yl)(pyridin-2-yl)methanone]
Human recombinant GR
  Ki: 0.5 to 1 nM
[1]
  Ki: < 20 nM

## Cc1cccc(S(=O)(=O)N2CCC3=Cc4c(cnn4-c4ccc(F)cc4)C[C@]3(C(=O)c3ccccn3)C2)n1 [Example 11O, (R)-(1-(4-fluorophenyl)-6-((6-methylpyridin-2-yl)sulfonyl)-4,4a,5,6,7,8-hexahydro-1H-pyrazolo[3,4-g]isoquinolin-4a-yl)(pyridin-2-yl)methanone]
Human recombinant GR; [2]
  Ki: < 0.5 nM
[1]; [3]
  Ki: < 20 nM

## O=C(c1ccccn1)[C@]12Cc3cnn(-c4ccc(F)cc4)c3C=C1CCN(S(=O)(=O)c1cncc(N3CCCC3)c1)C2 [Example 10B, (R)-(1-(4-fluorophenyl)-6-((5-(pyrrolidin-1-yl)pyridin-3-yl)sulfonyl)-4,4a,5,6,7,8-hexahydro-1H-pyrazolo[3,4-g]isoquinolin-4a-yl)(pyridin-2-yl)methanone]
Human recombinant GR; [2]
  Ki: < 0.5 nM
[1]; [3]
  Ki: < 20 nM

## Cn1ccc(S(=O)(=O)N2CCC3=Cc4c(cnn4-c4ccc(F)cc4)C[C@]3(C(=O)c3ccccn3)C2)n1 [Example 11BJ, (R)-(1-(4-fluorophenyl)-6-((1-methyl-1H-pyrazol-3-yl)sulfonyl)-4,4a,5,6,7,8-hexahydro-1H-pyrazolo[3,4-g]isoquinolin-4a-yl)(pyridin-2-yl)methanone]
Human recombinant GR; [2]
  Ki: < 0.5 nM
[1]; [3]
  Ki: 20 to 100 nM

## Cc1cccc(S(=O)(=O)N2CCC3=Cc4c(cnn4-c4ccc(F)cc4)C[C@]3(C(=O)c3cccc(C)n3)C2)c1 [Example 12H, (R)-(1-(4-fluorophenyl)-6-(m-tolylsulfonyl)-4,4a,5,6,7,8-hexahydro-1H-pyrazolo[3,4-g]isoquinolin-4a-yl)(6-methylpyridin-2-yl)methanone]
Human recombinant GR; [2]
  Ki: < 0.5 nM
[1]; [3]
  Ki: < 20 nM

## CCn1cc(S(=O)(=O)N2CCC3=Cc4c(cnn4-c4ccc(F)cc4)C[C@]3(C(=O)c3nccs3)C2)cn1 [Example 12X, (R)-(6-((1-ethyl-1H-pyrazol-4-yl)sulfonyl)-1-(4-fluorophenyl)-4,4a,5,6,7,8-hexahydro-1H-pyrazolo[3,4-g]isoquinolin-4a-yl)(thiazol-2-yl)methanone]
Human recombinant GR; [2]
  Ki: < 0.5 nM
[1]; [3]
  Ki: 20 to 100 nM

## CCn1cc(S(=O)(=O)N2CCC3=Cc4c(cnn4-c4ccc(F)cc4)C[C@]3(C(=O)c3cc(C)ccn3)C2)cn1 [Example 11AH, (R)-(6-((1-ethyl-1H-pyrazol-4-yl)sulfonyl)-1-(4-fluorophenyl)-4,4a,5,6,7,8-hexahydro-1H-pyrazolo[3,4-g]isoquinolin-4a-yl)(4-methylpyridin-2-yl)methanone]
Human recombinant GR; [2]
  Ki: < 0.5 nM
[1]; [3]
  Ki: < 20 nM

## Cc1cnc(C(=O)[C@]23Cc4cnn(-c5ccc(F)cc5)c4C=C2CCN(S(=O)(=O)c2ccnn2C)C3)s1 [Example 12V, (R)-(1-(4-fluorophenyl)-6-((1-methyl-1H-pyrazol-5-yl)sulfonyl)-4,4a,5,6,7,8-hexahydro-1H-pyrazolo[3,4-g]isoquinolin-4a-yl)(5-methylthiazol-2-yl)methanone]
Human recombinant GR; [2]
  Ki: 0.5 to 1 nM
[1]; [3]
  Ki: 20 to 100 nM

## O=C(c1nccs1)[C@]12Cc3cnn(-c4ccc(F)cc4)c3C=C1CCN(S(=O)(=O)c1ccc(N3CCCC3)nc1)C2 [Example 4, (R)-(1-(4-fluorophenyl)-6-((6-(pyrrolidin-1-yl)pyridin-3-yl)sulfonyl)-4,4a,5,6,7,8-hexahydro-1H-pyrazolo[3,4-g]isoquinolin-4a-yl)(thiazol-2-yl)methanone]
Human recombinant GR; [2]
  Ki: < 0.5 nM
[1]; [3]
  Ki: ≥ 100 nM

Reference: patent US12226412B2, “Heteroaryl-ketone fused azadecalin glucocorticoid receptor modulators” (Corcept Therapeutics, Inc., priority 2012, dated 2025)
